Assays:
[1] = test system: standard bacteria strains; assay: Antibacterial screening against standard strains (overall statements); type: cell-based; conditions: concentrations 16 to 512 µg/mL
Description: All of the obtained derivatives (1–9) were tested in vitro against a number of bacteria, including representative standard Gram-positive and Gram-negative rods. Compounds were screened for their minimal inhibitory concentrations (MICs).
The antimicrobial studies for all of the obtained compounds were conducted using reference strains of bacteria derived from international microbe collections—the American Type Culture Collection (ATCC) and the National Collection of Type Culture (NCTC). Among the reference strains there were two Gram-negative rods (P. aeruginosa ATCC 15442 and E. coli ATCC 25922) and six Gram-positive isolates (Staphylococcus aureus: NCTC 4163, ATCC 25923, ATCC 6538, ATCC 29213, S. epidermidis ATCC 12228, ATCC 35984). These strains are widely used to determine the activity of antimicrobials and check the drug susceptibility of bacteria, and their use enables comparison of assay results obtained in independent laboratories all over the world.
The antimicrobial activity of compounds was expressed by minimum inhibitory concentration values (MICs), according to CLCI reference procedures with some modifications. MIC was tested by the two-fold serial microdilution method (in 96-well microtiter plates) on MH II liquid medium. The final inoculum of all of the studied bacteria was 10^6 CFU/mL (colony forming unit per mL). […]

[2] = test system: K562 cells; assay: Trypan blue exclusion assay, K562; type: cell-based, human; conditions: 72 h; for Cell Number (×10^6): K562, trypan blue, IC50 concentration
Description: The MTT assay assesses the viable cell number based on mitochondrial enzyme activity. […] In the next step of our studies, we analyzed the total cell number and viability after exposure to the selected compounds at IC50 concentration using trypan blue exclusion assay. K562 cells were incubated with tested compounds over 72 h. […] To assess the antiproliferative properties of newly synthesized derivatives, we analyzed the total cell number. […] The parallel experiment was conducted with HaCaT cells. […] The trypan blue test rapidly assesses cell viability indirectly from cell membrane integrity, but some publications have indicated weaknesses of this viability test. […] On the other hand, cell membrane integrity may be affected even while the cell might still be able to repair itself and become fully viable.
To evaluate the antiproliferative effects of the novel benzofurans derivatives the trypan blue exclusion assay was performed. Cells (HaCat, and K562) were seeded into 12-well plates (2 × 10^4 cells/well). After 24 h, cells were exposed to the tested compounds at concentrations of their respective IC50 and incubated for 72h. Then, cells were harvested and centrifugated (500× g, 5min). After centrifugation supernatant was removed and cell sediment was dissolved in 0.2 mL of PBS. Next, 10 µL of cells solution was mixed with 10 µL of trypan blue dye. Cells were counted by automatic cell counter (Countessa). Data obtained were expressed as the mean ± SD and the mean percentage of viable cells was calculated from three independent experiments performed in triplicate.

| Compound | Antimicrobial activity against the studied strains [1] | Reduction of total cell number ([2]; K562, IC50 concentration, compared to control) [%] | Cell Number (×10^6) [2] |
| --- | --- | --- | --- |
| COc1cc(OC)c2c(CBr)c(C(C)=O)oc2c1 [Compound 6, 1-[3-(Bromomethyl)-4,6-Dimethoxy-1-Benzofuran-2-yl]Ethanone] | did not show antimicrobial properties against the studied strains | 13 | 0.62 ± 0.12 ×10^6 |
| CCOc1cccc2oc(C(C)=O)c(CBr)c12 [Compound 8, 1-[3-(Bromomethyl)-4-Ethoxy-1-Benzofuran-2-yl]Ethanone] | – | – | 0.83 ± 0.12 ×10^6 |

Source: article PMC10888192, “New Derivatives of 1-(3-Methyl-1-Benzofuran-2-yl)Ethan-1-one: Synthesis and Preliminary Studies of Biological Activity” (International Journal of Molecular Sciences, 2024)
